A value given as a limit tells only on which side of the number the result lay.

The results in this text go back to ChEMBL document CHEMBL4049417, “Design and synthesis of novel 6-aryl substituted 4-anilinequinazoline derivatives as potential PI3Kδ inhibitors” (Bioorg Med Chem Lett, 2017).

A short description of assay [1]: Antiproliferative activity against human RPMI8266 cells after 72 hrs by MTT assay. In kind it is functional, cell-based. Conditions: RPMI8266, 72 h. Background: Formazan colour is commonly taken as a measure of viable cells.
In the next assay the test system is Ramos. In words: Antiproliferative activity against human Ramos cells after 72 hrs by MTT assay. In kind it is functional, cell-based.
A further assay deals with Raji. In words: Antiproliferative activity against human Raji cells after 72 hrs by MTT assay. Type of assay: functional, cell-based.
Assay [2] has as its target PI3-kinase p110-delta/p85-alpha (Homo sapiens, UniProt O00329). Kind of assay: Inhibition of PI3K p110delta/p85alpha (unknown origin) using lipid substrate after 40 mins by kinase-glo luminescence assay. In kind it is protein-complex assay.
Assay [3] addresses PI3-kinase p110-delta/p85-alpha (Homo sapiens) (UniProt P27986+O00329). Kind of assay: Inhibition of PI3K p110delta/p85alpha (unknown origin) at 100 nM using lipid substrate after 40 mins by kinase-glo luminescence assay relative to control. In kind it is protein-complex assay. (In Kinase-Glo more light means more ATP remaining.)

Chain of PI3-kinase p110-delta/p85-alpha (P27986 whole entry): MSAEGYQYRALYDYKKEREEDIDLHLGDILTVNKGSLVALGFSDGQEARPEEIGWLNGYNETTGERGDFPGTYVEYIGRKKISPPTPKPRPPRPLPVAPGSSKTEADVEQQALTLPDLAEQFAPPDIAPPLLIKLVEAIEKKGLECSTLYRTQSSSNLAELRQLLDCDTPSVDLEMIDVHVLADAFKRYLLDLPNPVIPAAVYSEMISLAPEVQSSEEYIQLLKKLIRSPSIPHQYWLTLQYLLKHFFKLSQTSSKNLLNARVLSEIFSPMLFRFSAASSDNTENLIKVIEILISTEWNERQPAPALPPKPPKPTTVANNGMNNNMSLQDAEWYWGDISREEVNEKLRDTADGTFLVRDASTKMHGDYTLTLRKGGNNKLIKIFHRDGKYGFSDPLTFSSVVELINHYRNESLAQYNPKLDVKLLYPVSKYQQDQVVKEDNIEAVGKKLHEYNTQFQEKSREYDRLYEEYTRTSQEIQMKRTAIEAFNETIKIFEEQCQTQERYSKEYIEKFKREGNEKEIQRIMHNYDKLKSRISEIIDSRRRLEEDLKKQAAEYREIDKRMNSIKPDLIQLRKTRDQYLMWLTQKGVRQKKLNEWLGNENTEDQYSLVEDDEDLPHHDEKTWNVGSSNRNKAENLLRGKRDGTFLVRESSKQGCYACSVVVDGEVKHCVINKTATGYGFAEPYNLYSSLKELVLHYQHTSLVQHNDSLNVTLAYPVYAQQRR
Chain of PI3-kinase p110-delta/p85-alpha (O00329 whole entry): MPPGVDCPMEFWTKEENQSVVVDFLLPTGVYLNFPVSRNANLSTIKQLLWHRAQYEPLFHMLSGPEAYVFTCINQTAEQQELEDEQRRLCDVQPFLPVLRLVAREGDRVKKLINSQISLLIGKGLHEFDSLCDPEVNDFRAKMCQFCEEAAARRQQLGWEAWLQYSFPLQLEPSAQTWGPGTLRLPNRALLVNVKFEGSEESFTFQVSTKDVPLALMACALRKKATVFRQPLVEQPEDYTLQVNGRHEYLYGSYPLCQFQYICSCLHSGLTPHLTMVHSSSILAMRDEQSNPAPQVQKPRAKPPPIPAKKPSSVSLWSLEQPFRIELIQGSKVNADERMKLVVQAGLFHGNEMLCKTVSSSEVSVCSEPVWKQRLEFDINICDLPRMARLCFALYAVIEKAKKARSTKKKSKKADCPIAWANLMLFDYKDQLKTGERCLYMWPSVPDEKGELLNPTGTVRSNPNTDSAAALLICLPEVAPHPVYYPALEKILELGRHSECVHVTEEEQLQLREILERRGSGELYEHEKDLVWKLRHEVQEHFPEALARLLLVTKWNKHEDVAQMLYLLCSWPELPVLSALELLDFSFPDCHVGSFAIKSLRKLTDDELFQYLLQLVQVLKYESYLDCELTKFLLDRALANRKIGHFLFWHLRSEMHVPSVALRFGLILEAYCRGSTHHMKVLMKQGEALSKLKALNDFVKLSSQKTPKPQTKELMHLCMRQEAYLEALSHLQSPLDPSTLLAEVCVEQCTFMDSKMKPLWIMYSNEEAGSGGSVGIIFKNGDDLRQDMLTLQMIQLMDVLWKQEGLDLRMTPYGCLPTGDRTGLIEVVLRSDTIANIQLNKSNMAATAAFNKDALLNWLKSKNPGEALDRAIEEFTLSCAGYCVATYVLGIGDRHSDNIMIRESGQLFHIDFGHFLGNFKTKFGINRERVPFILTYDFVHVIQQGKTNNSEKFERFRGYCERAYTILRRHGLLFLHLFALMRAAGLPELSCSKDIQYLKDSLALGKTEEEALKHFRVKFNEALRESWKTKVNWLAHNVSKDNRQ

Regarding `COc1ncc(-c2ccc3ncnc(Nc4cccc(C(=O)N5CCOCC5)c4)c3c2)cc1C#N`, the concentration for half-maximal inhibition (IC50) in assay [1] is 6610 nM; in the assay on Ramos it was greater than 10000 nM; in the assay with Raji it was greater than 10000 nM; in assay [2] it was 9.3 nM. The same compound showed an inhibition in assay [3] of 93%.

`COc1ccc(-c2ccc3ncnc(Nc4cccc(C(=O)N5CCN(C)CC5)c4)c3c2)cc1C(N)=O` gave an inhibition in assay [3] of 33%.

Take `CC[C@H](Nc1ncnc2[nH]cnc12)c1nc2cccc(F)c2c(=O)n1-c1ccccc1` [IDELALISIB]: the IC50 in assay [1] was 5490 nM; in the assay on Ramos, greater than 10000 nM; in the assay on Raji, 9950 nM. In addition, the inhibition in assay [3] amounted to 96%.

Compound `COc1ccc(-c2ccc3ncnc(Nc4cccc(C(=O)N5CCN(C)CC5)c4)c3c2)cn1` displayed an inhibition in assay [3] of 71%.

On to `COc1ccc(-c2ccc3ncnc(Nc4ccc(C(=O)N5CCOCC5)cc4)c3c2)cc1C(N)=O`, for which the inhibition in assay [3] turned out to be 0%.

The compound `COc1ccc(-c2ccc3ncnc(Nc4ccc(C(=O)N5CCN(C)CC5)cc4)c3c2)cc1C(N)=O` came in with an inhibition in assay [3] of 12%.

The compound `COc1cc(C(N)=O)cc(-c2ccc3ncnc(Nc4cccc(C(=O)N5CCOCC5)c4)c3c2)c1` had an inhibition in assay [3] of 61%.

Compound `COc1ccc(-c2ccc3nccc(Nc4cccc(C(=O)N5CCN(C)CC5)c4)c3c2)cc1C(N)=O` displayed an inhibition in assay [3] of 0%.

In turn, `COc1ccc(-c2ccc3ncnc(Nc4cccc(C(=O)N5CCOCC5)c4)c3c2)cn1` came in with an inhibition in assay [3] of 87%.

In assay [3], `COc1c(C(N)=O)cc(-c2ccc3ncnc(Nc4cccc(C(=O)N5CCOCC5)c4)c3c2)cc1[N+](=O)[O-]` showed an inhibition of 49%.

Compound `COc1ccc(-c2ccc3nccc(Nc4cccc(C(=O)N5CCN(C)CC5)c4)c3c2)cn1` gave an inhibition in assay [3] of 23%.

The compound `COc1ccc(-c2ccc3ncnc(Nc4ccc(C(=O)N5CCOCC5)cc4)c3c2)cn1` had an inhibition in assay [3] of 61%.

`COc1ccc(-c2ccc3ncnc(Nc4cccc(C(=O)N5CCOCC5)c4)c3c2)cc1C(N)=O`: the inhibition in assay [3] stood at 21%.

Turning to `NC(=O)c1cc(-c2ccc3ncnc(Nc4cccc(C(=O)N5CCOCC5)c4)c3c2)cc(C(F)(F)F)c1`, the IC50 in assay [1] amounted to 1100 nM; in the assay on Ramos it was 1060 nM; in the assay on Raji it was 950 nM; in assay [2] it was 9.7 nM. Also, in assay [3], the inhibition was 91%.

The IC50 is the concentration that gives 50% inhibition. Higher therefore signals a need for much substance. The term inhibition denotes how much of the control response was suppressed. A high value points to a response far below the control.
